ChEMBL document CHEMBL1201862, “PubChem BioAssay data set” (2004)
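These data come from cells grown in 96-well plates and exposed to compound for 48 hours at five concentrations. Here, GI50 denotes the concentration required for 50% inhibition of growth.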 Active and inactive are the calls of the source. Rule as the data show it: active = GI50 up to about 1.1 µM and inactive = higher.

Key:
Experiment in all cases: growth of human tumour cells (NCI), 48 h
ACHN = tested on: ACHN
NCI-H226 = tested on: NCI-H226
SK-MEL-28 = tested on: SK-MEL-28
UACC-257 = tested on: UACC-257
SR = tested on: SR
Malme-3M = tested on: Malme-3M
NCI-H23 = tested on: NCI-H23
OVCAR-8 = tested on: OVCAR-8
M19-MEL = tested on: M19-MEL
RPMI-8226 = tested on: RPMI-8226
SK-MEL-2 = tested on: SK-MEL-2
NCI-H522 = tested on: NCI-H522
M14 = tested on: M14
OVCAR-3 = tested on: OVCAR-3
U-251 = tested on: U-251
DLD-1 = tested on: DLD-1
SF-268 = tested on: SF-268
EKVX = tested on: EKVX
SN12C = tested on: SN12C
XF498 = tested on: XF498
CCRF-CEM = tested on: CCRF-CEM
A498 = tested on: A498
DMS-114 = tested on: DMS-114
786-0 = tested on: 786-0
LXFL 529 = tested on: LXFL 529
SF-295 = tested on: SF-295
K562 = tested on: K562
SK-MEL-5 = tested on: SK-MEL-5
HT-29 = tested on: HT-29
OVCAR-4 = tested on: OVCAR-4
NCI-H460 = tested on: NCI-H460
SNB-19 = tested on: SNB-19
TK-10 = tested on: TK-10
HOP-62 = tested on: HOP-62
SNB-78 = tested on: SNB-78
COLO 205 = tested on: COLO 205
KM-20L2 = tested on: KM-20L2
SNB-75 = tested on: SNB-75
HCT-116 = tested on: HCT-116
A549 = tested on: A549
MOLT-4 = tested on: MOLT-4
UO-31 = tested on: UO-31
HL-60 = tested on: HL-60
SW-620 = tested on: SW-620
SK-OV-3 = tested on: SK-OV-3
CAKI-1 = tested on: CAKI-1
KM12 = tested on: KM12
OVCAR-5 = tested on: OVCAR-5
HOP-92 = tested on: HOP-92
UACC-62 = tested on: UACC-62
RXF 393 = tested on: RXF 393
IGROV-1 = tested on: IGROV-1
LOX IMVI = tested on: LOX IMVI
SF-539 = tested on: SF-539
DMS-273 = tested on: DMS-273
HCC 2998 = tested on: HCC 2998

Measured: GI50

O=C1OC(Cc2ccccc2)(N2CCCC2=O)C1c1ccccc1 (stereo unspecified)
inactive: ACHN 75.2 µM | NCI-H226 > 100 µM | SK-MEL-28 > 100 µM | UACC-257 > 100 µM | SR 56.4 µM | Malme-3M > 100 µM | NCI-H23 70.5 µM | OVCAR-8 > 100 µM | M19-MEL > 100 µM | RPMI-8226 59.4 µM | SK-MEL-2 > 100 µM | NCI-H522 48.2 µM | M14 > 100 µM | OVCAR-3 > 100 µM | U-251 44.7 µM | DLD-1 55.3 µM | SF-268 > 100 µM | EKVX 48.6 µM | SN12C 67.5 µM | XF498 20.3 µM | CCRF-CEM 43.9 µM | A498 4.95 µM | DMS-114 23.7 µM | 786-0 > 100 µM | LXFL 529 78.3 µM | SF-295 > 100 µM | K562 63.8 µM | SK-MEL-5 51.5 µM | HT-29 > 100 µM | OVCAR-4 > 100 µM | NCI-H460 > 100 µM | SNB-19 47.2 µM | TK-10 > 100 µM | HOP-62 > 100 µM | SNB-78 > 100 µM | COLO 205 > 100 µM | KM-20L2 > 100 µM | SNB-75 30.8 µM | HCT-116 53.2 µM | A549 95.7 µM | MOLT-4 43.6 µM | UO-31 > 100 µM | HL-60 43 µM | SW-620 65.5 µM | SK-OV-3 73.1 µM | CAKI-1 > 100 µM | KM12 74.8 µM | OVCAR-5 > 100 µM | HOP-92 62.8 µM | UACC-62 60 µM

Cc1ccc(/C=N\NC2c3cc(Cl)ccc3Nc3nc(O)nc(C)c32)cc1 (stereo unspecified)
inactive: ACHN > 100 µM | NCI-H226 > 100 µM | SK-MEL-28 > 100 µM | RXF 393 > 100 µM | UACC-257 88.9 µM | SR 7.29 µM | Malme-3M > 100 µM | NCI-H23 > 100 µM | OVCAR-8 72.6 µM | M19-MEL > 100 µM | IGROV-1 84.3 µM | RPMI-8226 45 µM | SK-MEL-2 > 100 µM | NCI-H522 > 100 µM | M14 57.1 µM | OVCAR-3 > 100 µM | LOX IMVI > 100 µM | U-251 > 100 µM | DLD-1 > 100 µM | SF-268 > 100 µM | EKVX > 100 µM | SN12C 65.3 µM | XF498 > 100 µM | CCRF-CEM 96.6 µM | DMS-114 > 100 µM | 786-0 > 100 µM | LXFL 529 > 100 µM | SF-295 > 100 µM | K562 56.5 µM | HT-29 > 100 µM | SF-539 > 100 µM | NCI-H460 > 100 µM | SNB-19 > 100 µM | TK-10 > 100 µM | HOP-62 > 100 µM | SNB-78 > 100 µM | COLO 205 58.1 µM | KM-20L2 > 100 µM | SNB-75 > 100 µM | HCT-116 46.8 µM | A549 > 100 µM | MOLT-4 4.92 µM | DMS-273 91.4 µM | UO-31 > 100 µM | HL-60 43.3 µM | SW-620 67.8 µM | SK-OV-3 > 100 µM | KM12 > 100 µM | HOP-92 43.3 µM | UACC-62 > 100 µM | HCC 2998 95.7 µM
